Key:
[1] = test system: sensitive L5178Y mouse T-lymphoma cells (PAR); experiment: MTT antiproliferative assay, sensitive cells; assay type: cell-based; settings: 72 h, mean ± SD
Description: (§1) Non-cancer mouse embryonic fibroblasts (NIH/3T3) were also used.
(§2) L5178Y mouse T-lymphoma cells (ECACC catalog no. 87111908, US FDA, Silver Spring, MD, USA) were transfected with the pHa MDR1/A retrovirus as previously reported. The ABCB1 (P-gp) overexpressing cells were selected by culturing the infected cells with 60 ng/mL of colchicine (Sigma-Aldrich Chemie GmbH, Steinheim, Germany) to preserve the MDR phenotype. L5178Y (parental, PAR) mouse T-cell lymphoma cells and the human ABCB1-transfected subline were cultured in McCoy’s 5A supplemented with 10% heat-inactivated horse serum, 100 U/L L-glutamine, and 100 mg/L penicillin-streptomycin mixture, all obtained from Sigma-Aldrich. The mouse embryonic fibroblast (NIH 3T3) cell line was purchased from ATCC (CRL-1658) and was cultured in DMEM medium supplemented with 10% fetal bovine serum. These adherent cells were detached using 0.25% trypsin and 0.02% EDTA for 5 min at 37 °C. Before the antiproliferative assay using NIH 3T3 cell line, the cells were seeded in untreated 96-well flat bottomed microtiter plates, following a 4 h incubation period in a humidified atmosphere (5% CO2, 95% air) at 37 °C.
The assay was performed according to the previously applied experimental settings.

[2] = test system: mouse embryonic fibroblasts (NIH/3T3); experiment: MTT antiproliferative assay, non-cancer cells; assay type: cell-based; settings: for SI C/B (Selectivity Index): IC50 NIH/3T3 / IC50 MDR; for SI C/A (Selectivity Index): IC50 NIH/3T3 / IC50 PAR; for IC50: NIH3T3, non-cancer mouse embryonic fibroblasts, MTT, read-out: IC50 NIH/3T3 (C)
Description: as §1
In addition, the antiproliferative activity of the compounds was also evaluated on non-cancerous mouse embryonic fibroblast cells (NIH/3T3), whose values were compared with those of PAR and MDR cells by evaluation of the selective index (SI) values. […] The highest selective index values (SIC/A = 9.39; SIC/B = 10.79) were found for the derivative bearing the trimethoxyphenyl substituent (17).
as §2

[3] = test system: human ABCB1-transfected L5178Y mouse lymphoma cells; experiment: Checkerboard combination assay with doxorubicin; assay type: cell-based; set-up: key to CI at ED50 (combination index): CI <1 synergy, =1 additive, >1 antagonism; settings: MDR cells; for CI at ED50 (combination index): best ratio
Description: The in vitro interactions between the compounds and the well-known antitumor drug and P-gp substrate, doxorubicin, were evaluated in a combination chemotherapy model on human ABCB1-transfected mouse T-lymphoma cells. The nature of drug–drug interactions was assessed by determination of the combination index (CI) using the Chou and Talalay method (Figure 1), and therefore evaluated as synergistic (CI < 1), additive (CI = 1), or antagonistic (CI > 1).
Doxorubicin (2 mg/mL, Teva Pharmaceuticals, Budapest, Hungary) was serially diluted horizontally in 100 µL as previously described, starting with 8.6 µM. The resistance modifier was subsequently diluted vertically in 50 µL; the starting concentration was determined based on the IC50. […] The checkerboard plates were kept for 72 h at 37 °C in a CO2 incubator, and at the end of the incubation period, the cell growth was determined by MTT staining method, as described earlier. Drug interactions were evaluated using Calcusyn software. Each dose–response curve (for individual agents as well as combinations) was fit to a linear model using the median effect equation in order to obtain the median effect value (corresponding to the IC50) and slope (m). The goodness-of-fit was assessed using the linear correlation coefficient, r, and only data from analysis with r > 0.90 were presented. The extent of interaction between drugs was expressed using the combination index, in which a CI value close to 1 indicates additivity, while a CI < 1 is defined as synergy and a CI > 1 as antagonism.

[4] = molecular target: T1, recombinant human P-gp membranes (Homo sapiens, UniProt P08183); experiment: P-gp ATPase activity assay (Pgp-Glo); assay type: biochemical; settings: 25 µM; for % basal P-gp activity: basal activity = 100%
T1 construct: purchased Promega
From the text: Once it was established that ATP hydrolysis is directly associated with the P-gp efflux activity, the interaction mode between selected compounds (12, 17, 18, 20, and 29) and this transporter protein was further investigated using human P-gp membranes in the ATPase activity assay (P-gp-Glo^TM) to gather insights about their interaction with P-gp activity, namely, as stimulators or inhibitors. This ATPase activity assay is based on the ATP dependence of the light-generating reaction of firefly luciferase. After incubating P-gp with ATP, the reaction is stopped, and the ATP consumption by P-gp is given by a luciferase-generated luminescent signal due to the remaining unmetabolized ATP. Thus, a greater decrease in the signal means a higher P-gp activity.
Sodium orthovanadate (Vanadate, Na3VO4) is an inhibitor of P-gp ATPase activity; thus, after treating samples with vanadate, no P-gp-dependent ATP consumption is observed. Therefore, the P-gp basal ATP consumption (basal activity) is defined as the difference between the luminescent signal of samples treated with vanadate and untreated. Consequently, the tested compounds were ranked as stimulators or inhibitors by comparing their P-gp ATPase activity with the basal activity. Verapamil (0.5 mM), a known P-gp substrate and activator of the ATPase activity of this transporter, thus causing a decrease in the percentage of luminescence of luciferase when compared with untreated samples (Figure 2), was used as control. The results are represented in Figure 2 as the difference between the luminescence of luciferase observed when treated with the compounds and with vanadate in comparison with the basal activity (100%).
The P-glycoprotein ATPase activity was determined using the Pgp-Glo^TM Assay Systems Promega kit according to the manufacturer’s instructions. Briefly, 20 µL of recombinant human P-gp membranes (1.25 mg/mL), expressing high levels of human P-gp, were incubated in 20 µL of Pgp-Glo^TM assay buffer for 5 min at 37 °C. Compounds were tested at 25 µM sodium orthovanadate (Na3VO4, 0.25 mM) as an inhibitor control, verapamil as a substrate control (0.5 mM), and DMSO at 2% as solvent control. The reaction was initiated by adding 10 µL of 25 mM MgATP and incubated at 37 °C for 40 min. The ATPase reaction was stopped, and after adding 50 µL of ATP Detection Reagent, the samples were incubated at room temperature for 20 min. The luciferase-generated luminescent signal emitted was measured in a CLARIOstar Plus plate reader (BMG Labtech, UK) at 580 nm. The % of basal P-gp activity was calculated through the ratio between the luminescence measured of the P-gp ATPase activity of each compound and the basal activity according to Equation (4).
(4) % basal P-gp activity = LumNa3VO4−Lumtreated/LumNa3VO4−Lumuntreated×100%
Figure 2 Effect of compounds 12, 17, 18, 20, 29, and verapamil (VER) on P-gp ATPase activity. The compounds are identified as P-gp substrates if they stimulate its basal activity (>100%) or as modulators when inhibiting basal activity (<100%). Compounds were tested at 25 µM and verapamil at 0.5 mM. Results were calculated as the means ± SD from experiments performed in triplicates.

[5] = test system: human ABCB1-gene transfected L5178Y subline (MDR); settings: for RR (relative resistance ratio) = IC50MDR/IC50PAR: RR ≤ 0.5 means CS effect

T1 sequence (P08183 whole entry): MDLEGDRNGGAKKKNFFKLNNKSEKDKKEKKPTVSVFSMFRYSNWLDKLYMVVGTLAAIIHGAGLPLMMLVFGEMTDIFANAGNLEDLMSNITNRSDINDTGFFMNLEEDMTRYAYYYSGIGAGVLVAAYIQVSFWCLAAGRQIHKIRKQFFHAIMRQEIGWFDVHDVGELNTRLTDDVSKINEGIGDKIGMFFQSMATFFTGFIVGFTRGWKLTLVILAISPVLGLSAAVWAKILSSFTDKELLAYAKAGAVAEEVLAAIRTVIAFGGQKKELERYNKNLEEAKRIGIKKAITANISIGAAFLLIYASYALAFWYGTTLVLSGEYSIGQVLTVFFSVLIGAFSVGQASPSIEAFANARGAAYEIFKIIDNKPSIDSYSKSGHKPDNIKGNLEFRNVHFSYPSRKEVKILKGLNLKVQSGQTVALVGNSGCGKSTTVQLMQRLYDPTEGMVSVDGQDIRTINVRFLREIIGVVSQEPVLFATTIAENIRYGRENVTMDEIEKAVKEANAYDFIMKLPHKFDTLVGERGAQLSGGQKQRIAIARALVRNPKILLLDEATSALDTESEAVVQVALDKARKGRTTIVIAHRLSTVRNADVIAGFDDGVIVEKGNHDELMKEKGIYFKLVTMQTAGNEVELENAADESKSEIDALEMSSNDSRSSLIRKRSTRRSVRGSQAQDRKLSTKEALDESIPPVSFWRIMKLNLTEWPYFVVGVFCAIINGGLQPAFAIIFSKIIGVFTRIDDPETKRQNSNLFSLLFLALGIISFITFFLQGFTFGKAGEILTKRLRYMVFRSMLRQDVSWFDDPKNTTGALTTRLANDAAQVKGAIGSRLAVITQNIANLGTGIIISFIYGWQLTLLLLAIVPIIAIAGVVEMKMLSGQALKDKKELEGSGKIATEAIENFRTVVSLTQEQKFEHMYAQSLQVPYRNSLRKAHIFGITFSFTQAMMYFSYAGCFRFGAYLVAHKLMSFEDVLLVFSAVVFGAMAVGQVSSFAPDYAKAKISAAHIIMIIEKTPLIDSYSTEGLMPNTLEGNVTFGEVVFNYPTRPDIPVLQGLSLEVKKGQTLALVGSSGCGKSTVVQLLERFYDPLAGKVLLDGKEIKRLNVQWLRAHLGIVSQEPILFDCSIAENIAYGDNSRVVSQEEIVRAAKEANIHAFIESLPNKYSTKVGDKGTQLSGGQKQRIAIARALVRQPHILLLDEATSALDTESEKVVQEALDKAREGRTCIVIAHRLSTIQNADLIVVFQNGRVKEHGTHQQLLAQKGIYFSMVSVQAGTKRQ

Row | IC50 [1] [µM] | Effect on P-gp ATPase activity [4] | % basal P-gp activity [4] [%] | IC50 [5] [µM] | RR (relative resistance ratio) = IC50MDR/IC50PAR [5] | SMILES | SI C/B (Selectivity Index) [2] | SI C/A (Selectivity Index) [2] | IC50 [2] [µM] | Interaction [3] | CI at ED50 (combination index) [3]
1 | 9.07 ± 0.67 | inhibitors of P-gp ATPase activity | < 100 | 7.9 ± 0.44 | 0.87 | CCC1CN(C)C2Cc3c([nH]c4ccccc34)C(=NN=Cc3cc(OC)c(OC)c(OC)c3)CC1C2C(=O)OC (centres unmarked) [Compound 17, 3-[(3″,4″,5″-trimethoxybenzylidene)hydrazineylidene]dregamine] | 10.79 | 9.39 | 85.2 ± 1.62 | Synergism | 0.309
2 | 8.72 ± 0.53 | inhibitors of P-gp ATPase activity | < 100 | 8.73 ± 0.53 | 1.00 | CCC1CN(C)C2Cc3c([nH]c4ccccc34)C(=NN=Cc3cc4ccccc4[nH]3)CC1C2C(=O)OC (centres unmarked) [Compound 20, 3-[((1H-indol-2-yl)methylene)hydrazineylidene]dregamine] | 1.57 | 1.58 | 13.8 ± 0.69 | Strong Synergism | 0.291
3 | 12.8 ± 0.16 | stimulating the P-gp activity | – | 7.42 ± 0.48 | 0.58 | CCC1CN(C)C2Cc3c([nH]c4ccccc34)C(=NN=Cc3ccc(N(C)C)cc3)CC1C2C(=O)OC (centres unmarked) [Compound 12, 3-[(4″-(dimethylamino)benzylidene)hydrazineylidene]dregamine] | 1.91 | 1.10 | 14.2 ± 0.59 | Strong Synergism | 0.231

— PMC8493801, “Exploring the Monoterpene Indole Alkaloid Scaffold for Reversing P-Glycoprotein-Mediated Multidrug Resistance in Cancer” (Pharmaceuticals, 2021)
